Values joined by “and” are separate entries in the source; they are usually repeats but may differ in a detail not shown here. Identical values can stand only once.
Legend:
[1] = system: (multidrug-resistant, P-gp 170 overexpressing) KB-8511 epidermoid carcinoma cells; assay: Proliferation inhibition of KB-8511 cells (methylene blue staining); type: cell-based, human; details: KB-8511 cell line (multidrug-resistant, P-gp 170 overexpressing), four days incubation with compound, repeated lines are separate determinations
Procedure: (§1) Stock solutions of the test compound of formula I 10 mM) in DMSO are prepared and stored at −20° C. Human KB-31 and (multidrug-resistant, P-gp 170 overexpressing) KB-8511 epidermoid carcinoma cells are from Dr. M. Baker, Roswell Park Memorial Institute (Buffalo, N.Y., USA) (for description see also Akiyama et al., Somat. Cell. Mol. Genetics 11, 117-126 (1985) und Fojo A., et al., Cancer Res. 45, 3002-3007 (1985)—KB-31 und KB-851 I both are derivatives of the KB-cell line (American Type Culture Collection) and are human epidermoid carcinoma cells. KB-31 cells can be cultivated in mono-layers using calf serum (M.A. Bio-products), L-glutamine (Flow), penicillin (50 Units/ml) und streptomycin (50 μg/ml (Flow); they then grow with a doubling rate of about 22 hours, and the relative efficiency of plating them out lies at about 60%. […] The cells are incubated at 37° C. in an incubator with 5% V/V CO2 and at 80% relative atmospheric humidity in MEM Alpha-medium which contains ribonucleosides und desoxyribonucleosides (Gibco BRL), complemented with 10 IU Penicillin, 10 μg/ml Streptomycin and 5% fetal calf serum. The cells are spread in an amount of 1.5×10^3 cells/well in 96-well-microtiter plates and incubated overnight. Serial dilutions of the test compounds in culture medium are added at day 1. The plates are then incubated for an additional period of four days, after which the cells are fixed using 3.3% v/v glutaraldehyde washed with water and finally stained with 0.05% w/v methylene blue. After washing again, the stain is eluted with 3% HCl and the optical density at 665 nm is measured with a SpectraMax 340 (Molecular Devices, Sunnyvale, Calif.). IC50-values are determined by mathematically fitting the data to curves using the SoftPro2.0 program (Molecular Devices, Sunnyvale, Calif.) and the formula […]/[(OD control)−(OD start)]×100.
(§2) The IC50 is defined as the concentration of a test compound at the end of the incubation period that leads to 50% of the number of cells in comparison to controls without test compound (concentration at halfmaximal inhibition of cell growth).
(§3) Proliferation inhibition (IC50) of epothilone derivatives (Examples 1-16) towards KB-31 and KB-8511 cell lines. Method as described above.

[2] = system: Human KB-31 epidermoid carcinoma cells; assay: Proliferation inhibition of KB-31 cells (methylene blue staining); type: cell-based; details: KB-31 cell line, four days incubation with compound, repeated lines are separate determinations
Procedure: as §1, §2, §3

Structure (SMILES)	IC50 ([1]; Homo sapiens, 96 h) [nM]	IC50 [1]	IC50 ([2]; Homo sapiens, KB 3-1, 96 h) [nM]	IC50 [2]
Cc1nc2cc([C@@H]3C[C@@H]4O[C@H]4CCC[C@H](C)[C@H](O)[C@@H](C)C(=O)C(C)(C)[C@@H](O)CC(=O)O3)ccc2n1C [Example 12, (1S,3S,7S,10R,11S,12S,16S)-3-(1,2-Dimethyl-1H-benzoimidazol-5-yl)-7,11-dihydroxy-8,8,10,12-tetramethyl-4,17-dioxa-bicyclo[14.1.0]heptadecane-5,9-dione]	1.45	1.67 nM and 0.96 nM	0.27	0.24 nM and 0.228 nM
Cc1nc2cc([C@@H]3C/C=C/CCC[C@H](C)[C@H](O)[C@@H](C)C(=O)C(C)(C)CCC(=O)O3)ccc2n1C [Example 7, (E)-(7R,8S,9S,16S)-16-(1,2-Dimethyl-1H-benzoimidazol-5-yl)-8-hydroxy-5,5,7,9-tetramethyl-oxacyclohexadec-13-ene-2,6-dione]	50.2	49.9 nM	39.1	41.9 nM
Cc1nc2cc([C@@H]3C[C@@H]4O[C@H]4CCC[C@H](C)[C@H](O)[C@@H](C)C(=O)C(C)(C)/C=C/C(=O)O3)ccc2n1C [Example 14, (E)-(1S,3S,10R,11S,12S,16S)-3-(1,2-Dimethyl-1H-benzoimidazol-5-yl)-11-hydroxy-8,8,10,12-tetramethyl-4,17-dioxa-bicyclo[14.1.0]heptadec-6-ene-5,9-dione]	12.4	9.92 nM	5	3.5 nM
C/C(=C\c1csc(C)n1)[C@@H]1C[C@@H]2O[C@]2(C)CCC[C@H](C)[C@H](O)[C@@H](C)C(=O)C(C)(C)CCC(=O)O1 [Example 2, (1S,3S,10R,11S,12S,16R)-11-Hydroxy-8,8,10,12,16-pentamethyl-3-[(E)-1-methyl-2-(2-methyl-thiazol-4-yl)-vinyl]-4,17-dioxa-bicyclo[14.1.0]heptadecane-5,9-dione]	2.18	–	5.12	–
Cc1nc2cc([C@@H]3C/C=C/CCC[C@H](C)[C@H](O)[C@@H](C)C(=O)C(C)(C)/C=C/C(=O)O3)ccc2n1C [Example 13, (3E,13E)-(7R,8S,9S,16S)-16-(1,2-Dimethyl-1H-benzoimidazol-5-yl)-8-hydroxy-5,5,7,9-tetramethyl-oxacyclohexadeca-3,13-diene-2,6-dione]	74.1	68.8 nM and 73.5 nM	144	138 nM and 152 nM
Cc1nc2cc([C@@H]3C/C=C\CCC[C@H](C)[C@H](O)[C@@H](C)C(=O)C(C)(C)CCC(=O)O3)ccc2n1C [Example 3, 16-(1,2-Dimethyl-1H-benzoimidazol-5-yl)-8-hydroxy-5,5,7,9-tetramethyl-oxacyclohexadec-13-ene-2,6-dione]	50.4	62.3 nM	54.9	62 nM
C/C1=C/C[C@@H](/C(C)=C/c2csc(C)n2)OC(=O)CCC(C)(C)C(=O)[C@H](C)[C@@H](O)[C@@H](C)CCC1 [Example 1, (Z)-(7R,8S,9S,16S)-8-Hydroxy-5,5,7,9,13-pentamethyl-16-[(E)-1-methyl-2-(2-methyl-thiazol-4-yl)-vinyl]-oxacyclohexadec-13-ene-2,6-dione]	75.4	–	106	–
Cc1nc2cc([C@@H]3C[C@@H]4O[C@]4(C)CCC[C@H](C)[C@H](O)[C@@H](C)C(=O)C(C)(C)CCC(=O)O3)ccc2n1C [Example 6, (1S,3S,10R,11S,12S,16R)-3-(1,2-Dimethyl-1H-benzoimidazol-5-yl)-11-hydroxy-8,8,10,12,16-pentamethyl-4,17-dioxa-bicyclo[14.1.0]heptadecane-5,9-dione]	< 2	1.61 nM	–	–
Cc1nc2cc([C@@H]3C[C@@H]4C[C@H]4CCC[C@H](C)[C@H](O)[C@@H](C)C(=O)C(C)(C)[C@@H](O)CC(=O)O3)ccc2n1C [Example 16, (1S,3S,7S,10R,11S,12S,16R)-3-(1,2-Dimethyl-1H-benzoimidazol-5-yl)-7,11-dihydroxy-8,8,10,12-tetramethyl-4-oxa-bicyclo[14.1.0]heptadecane-5,9-dione]	0.11	–	0.149	–
Cc1nc2cc([C@@H]3C[C@@H]4C[C@@H]4CCC[C@H](C)[C@H](O)[C@@H](C)C(=O)C(C)(C)[C@@H](O)CC(=O)O3)ccc2n1C (stereo in doubt) [Example 15, 3-(1,2-Dimethyl-1H-benzoimidazol-5-yl)-7,11-dihydroxy-8,8,10,12-tetramethyl-4-oxa-bicyclo[14.1.0]heptadecane-5,9-dione]	1.01	–	0.467	–
Cc1nc2cc([C@@H]3C[C@@H]4O[C@H]4CCC[C@H](C)[C@H](O)[C@@H](C)C(=O)C(C)(C)CCC(=O)O3)ccc2n1C [Example 8, (1S,3S,10R,11S,12S,16S)-3-(1,2-Dimethyl-1H-benzoimidazol-5-yl)-11-hydroxy-8,8,10,12-tetramethyl-4,17-dioxa-bicyclo[14.1.0]heptadecane-5,9-dione]	5.83	–	2.76	–
Cc1nc2cc([C@@H]3C/C=C/CCC[C@H](C)[C@H](O)[C@@H](C)C(=O)C(C)(C)[C@@H](O)CC(=O)O3)ccc2n1C [Example 11, (E)-(4S,7R,8S,9S,16S)-16-(1,2-Dimethyl-1H-benzoimidazol-5-yl)-4,8-dihydroxy-5,5,7,9-tetramethyl-oxacyclohexadec-13-ene-2,6-dione]	25.1	36.6 nM and 37 nM	–	–
Cc1nc2cc([C@@H]3C[C@@H]4O[C@@H]4CCC[C@H](C)[C@H](O)[C@@H](C)C(=O)C(C)(C)CCC(=O)O3)ccc2n1C [Example 4, 3-(1,2-Dimethyl-1H-benzoimidazol-5-yl)-11-hydroxy-8,8,10,12-tetramethyl-4,17-dioxa-bicyclo[14.1.0]heptadecane-5,9-dione]	36.6	39.2 nM and 37.1 nM	6.56	7.95 nM and 7.65 nM

Source: patent US7825141B2, “Epothilone derivatives” (Novartis AG, priority 2004, dated 2010)
